According to article PMC5118716, “Structural basis of TRPA1 inhibition by HC-030031 utilizing species-specific differences” (Scientific Reports, 2016):
Where a chain is given by its changes, count along the chain named.

Tests used:
Test in all cases: two-electrode voltage clamp, X. laevis oocytes
Assay type in all cases: cell-based
[1] = molecular target: T1, hTRPA1 (Homo sapiens, UniProt O75762); details: agonist, non-electrophilic; pH 7.4, -60 mV
T1 construct: gene TRPA1; full-length wild type (1119 residues); X. laevis oocytes (cRNA) or HEK293T cells (pcDNA3.1)
T1 sequence (O75762 whole entry): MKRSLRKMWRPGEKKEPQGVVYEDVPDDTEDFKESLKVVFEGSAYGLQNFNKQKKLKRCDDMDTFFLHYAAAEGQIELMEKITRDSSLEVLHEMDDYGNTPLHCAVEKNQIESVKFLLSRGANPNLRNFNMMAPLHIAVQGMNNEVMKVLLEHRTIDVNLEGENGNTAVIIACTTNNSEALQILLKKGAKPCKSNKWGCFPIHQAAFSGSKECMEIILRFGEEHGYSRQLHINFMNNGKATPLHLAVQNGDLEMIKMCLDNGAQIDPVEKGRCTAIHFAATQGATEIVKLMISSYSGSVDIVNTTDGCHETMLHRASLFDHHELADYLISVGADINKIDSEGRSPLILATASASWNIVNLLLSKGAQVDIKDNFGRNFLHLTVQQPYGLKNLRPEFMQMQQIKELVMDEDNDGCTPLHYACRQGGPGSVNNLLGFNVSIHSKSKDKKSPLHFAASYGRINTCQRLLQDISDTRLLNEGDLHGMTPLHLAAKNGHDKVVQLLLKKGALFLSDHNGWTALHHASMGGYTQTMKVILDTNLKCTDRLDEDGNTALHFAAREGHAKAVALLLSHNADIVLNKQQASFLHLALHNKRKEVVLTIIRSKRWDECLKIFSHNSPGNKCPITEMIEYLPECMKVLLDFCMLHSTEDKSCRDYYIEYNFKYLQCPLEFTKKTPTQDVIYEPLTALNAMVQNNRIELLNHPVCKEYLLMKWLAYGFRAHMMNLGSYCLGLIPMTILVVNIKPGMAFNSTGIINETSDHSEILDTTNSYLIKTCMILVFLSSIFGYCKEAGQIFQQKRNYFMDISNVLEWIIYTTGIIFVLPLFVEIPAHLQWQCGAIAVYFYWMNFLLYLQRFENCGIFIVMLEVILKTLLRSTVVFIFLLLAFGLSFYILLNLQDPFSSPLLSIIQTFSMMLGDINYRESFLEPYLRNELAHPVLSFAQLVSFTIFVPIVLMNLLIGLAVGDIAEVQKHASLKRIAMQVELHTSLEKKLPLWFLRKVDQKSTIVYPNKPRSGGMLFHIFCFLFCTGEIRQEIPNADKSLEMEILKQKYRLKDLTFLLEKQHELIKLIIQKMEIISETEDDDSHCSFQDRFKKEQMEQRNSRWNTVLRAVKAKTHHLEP

[2] = molecular target: T2, fTRPA1 (Xenopus tropicalis, UniProt A0A8J0QD66); details: agonist
T2 construct: gene trpa1; full-length wild type (1144 residues); X. laevis oocytes (cRNA)
T2 sequence (A0A8J0QD66 1-1144): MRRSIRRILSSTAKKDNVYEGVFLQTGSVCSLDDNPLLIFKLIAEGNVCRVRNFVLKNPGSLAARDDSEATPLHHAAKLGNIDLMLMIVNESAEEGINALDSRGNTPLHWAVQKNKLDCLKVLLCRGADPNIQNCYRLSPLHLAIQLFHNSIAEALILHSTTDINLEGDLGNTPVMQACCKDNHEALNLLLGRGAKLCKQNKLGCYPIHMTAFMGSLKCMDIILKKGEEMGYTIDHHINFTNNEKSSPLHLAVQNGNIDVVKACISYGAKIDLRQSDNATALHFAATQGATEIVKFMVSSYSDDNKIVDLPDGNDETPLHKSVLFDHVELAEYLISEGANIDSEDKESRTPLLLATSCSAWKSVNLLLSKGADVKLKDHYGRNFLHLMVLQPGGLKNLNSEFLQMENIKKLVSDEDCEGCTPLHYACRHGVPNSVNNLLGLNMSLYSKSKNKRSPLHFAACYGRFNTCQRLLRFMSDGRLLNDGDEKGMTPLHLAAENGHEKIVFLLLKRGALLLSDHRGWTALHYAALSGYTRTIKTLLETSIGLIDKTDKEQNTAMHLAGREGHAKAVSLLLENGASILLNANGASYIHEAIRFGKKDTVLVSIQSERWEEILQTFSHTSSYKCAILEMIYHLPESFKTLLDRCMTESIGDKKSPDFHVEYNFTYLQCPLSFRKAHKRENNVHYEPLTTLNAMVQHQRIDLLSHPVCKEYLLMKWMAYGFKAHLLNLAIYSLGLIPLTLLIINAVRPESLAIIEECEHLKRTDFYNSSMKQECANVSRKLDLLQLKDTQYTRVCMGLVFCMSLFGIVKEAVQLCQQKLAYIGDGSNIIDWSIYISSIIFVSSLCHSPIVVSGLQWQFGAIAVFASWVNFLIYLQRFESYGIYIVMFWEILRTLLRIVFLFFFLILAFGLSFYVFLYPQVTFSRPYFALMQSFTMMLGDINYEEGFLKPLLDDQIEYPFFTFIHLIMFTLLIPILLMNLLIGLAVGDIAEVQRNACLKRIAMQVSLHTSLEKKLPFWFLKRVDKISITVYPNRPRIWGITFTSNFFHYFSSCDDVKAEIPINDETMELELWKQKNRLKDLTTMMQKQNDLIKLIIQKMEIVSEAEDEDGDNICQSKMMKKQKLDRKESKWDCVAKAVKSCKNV

[3] = molecular target: T3, zTRPA1b (Danio rerio, UniProt A0A8M1N2Z4, R860N); details: antagonist; vs 1 mM CA; pH 7.4, 1.8 mM CaCl2, -60 mV
T3 construct: gene trpa1b; full-length; X. laevis oocytes (cRNA)
T3 sequence (A0A8M1N2Z4 1-1120 R860N): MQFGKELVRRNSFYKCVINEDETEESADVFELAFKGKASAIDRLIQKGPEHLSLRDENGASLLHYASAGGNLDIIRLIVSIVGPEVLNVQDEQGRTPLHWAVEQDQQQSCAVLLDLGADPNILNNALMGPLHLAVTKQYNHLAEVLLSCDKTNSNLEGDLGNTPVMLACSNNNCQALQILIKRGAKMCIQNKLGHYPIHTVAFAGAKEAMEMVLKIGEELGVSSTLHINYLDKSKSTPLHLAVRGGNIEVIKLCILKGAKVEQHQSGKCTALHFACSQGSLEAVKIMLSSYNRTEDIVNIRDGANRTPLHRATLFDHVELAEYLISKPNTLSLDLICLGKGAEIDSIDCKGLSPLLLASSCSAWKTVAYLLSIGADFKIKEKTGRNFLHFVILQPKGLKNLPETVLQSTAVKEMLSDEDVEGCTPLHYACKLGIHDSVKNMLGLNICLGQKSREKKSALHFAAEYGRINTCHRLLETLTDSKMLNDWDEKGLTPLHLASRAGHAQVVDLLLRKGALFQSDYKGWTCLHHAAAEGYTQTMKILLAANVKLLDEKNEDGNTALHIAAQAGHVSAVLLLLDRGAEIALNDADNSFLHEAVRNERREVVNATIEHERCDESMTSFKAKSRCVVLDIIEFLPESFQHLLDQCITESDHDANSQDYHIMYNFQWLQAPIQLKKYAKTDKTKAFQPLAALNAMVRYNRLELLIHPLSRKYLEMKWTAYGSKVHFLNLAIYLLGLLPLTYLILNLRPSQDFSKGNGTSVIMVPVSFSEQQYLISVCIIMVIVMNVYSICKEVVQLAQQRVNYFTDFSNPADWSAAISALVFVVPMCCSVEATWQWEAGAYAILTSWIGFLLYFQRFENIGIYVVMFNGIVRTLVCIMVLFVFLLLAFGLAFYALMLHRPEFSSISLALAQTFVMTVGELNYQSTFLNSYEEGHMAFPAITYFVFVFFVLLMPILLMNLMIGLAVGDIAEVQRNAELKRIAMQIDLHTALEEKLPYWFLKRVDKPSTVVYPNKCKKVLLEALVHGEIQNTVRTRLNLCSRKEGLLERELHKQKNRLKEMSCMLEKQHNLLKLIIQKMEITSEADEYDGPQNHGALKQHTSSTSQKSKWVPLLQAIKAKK

[4] = molecular target: T4, fTRPA1 (Xenopus tropicalis, UniProt A0A8J0QD66, S880N); details: antagonist; vs 0.5 mM CA; pH 7.4, 1.8 mM CaCl2, -60 mV
T4 construct: gene trpa1; full-length wild type (1144 residues); X. laevis oocytes (cRNA)
T4 sequence (A0A8J0QD66 1-1144 S880N): T2 sequence (A0A8J0QD66 1-1144) with S880N

[5] = molecular target: T5, hTRPA1 (Homo sapiens, UniProt O75762, N855S); details: antagonist; vs 0.3 mM CA; pH 7.4, 1.8 mM CaCl2, -60 mV
T5 construct: gene TRPA1; full-length wild type (1119 residues); X. laevis oocytes (cRNA) or HEK293T cells (pcDNA3.1)
T5 sequence (O75762 whole entry N855S): as the sequence (O75762 whole entry) above, with N855S counted along it

SMILES: Cc1ccc(C(C)C)cc1O [carvacrol]
- two-electrode voltage clamp, X. laevis oocytes [1]: hTRPA1 and fTRPA1 currents activated by the non-electrophilic compound carvacrol
- two-electrode voltage clamp, X. laevis oocytes ([2]; non-electrophilic, pH 7.4, -60 mV): hTRPA1 and fTRPA1 currents activated by the non-electrophilic compound carvacrol

SMILES: CC(C)c1ccc(NC(=O)Cn2cnc3c2c(=O)n(C)c(=O)n3C)cc1 [HC, HC-030031]
- inhibition at 50 μM [3]: significant reduction in current amplitudes in zTRPA1-R860N although wt-zTRPA1b showed no inhibition
- inhibition at 50 μM [4]: HC reduced the CA-evoked currents in the second application in fTRPA1-S880N
- inhibition at 50 μM [5]: hTRPA1-N855S showed significantly less sensitivity to HC than wt-hTRPA1 at all concentrations examined

SMILES: O=CC=Cc1ccccc1 [CA, cinnamaldehyde]
- two-electrode voltage clamp, X. laevis oocytes ([2]; 0.5 mM, covalent, pH 7.4, 1.8 mM CaCl2, -60 mV): TRPA1-mediated currents were activated by CA with approximately similar amplitude
